Laboratory results as given in ChEMBL document CHEMBL1201862, “PubChem BioAssay data set” (2004).
Calls of active or inactive are those of the source. Unless noted, no cut-off for these calls is given here.

Assays:
[1] = system: HEK293; assay: EBV LMP1 TES2 canonical NF-kB signalling blockers – cell-based, HEK293, luciferase, cherry-pick, dose response (AID 588343); assay type: functional; settings: Homo sapiens
[2] = target: Hexokinase-1 (Homo sapiens, UniProt P19367); assay: HK1 enzyme activation by HKDC1 hits – biochemical, selectivity assay for HKDC1 activator project, dose response (AID 504762); assay type: functional
[3] = target: Nonstructural protein 1 (Influenza A virus, UniProt Q194T2); assay type: functional, Influenza A virus (A/California/07/2009(H1N1))
[4] = target: T1, Hexokinase HKDC1 (Homo sapiens, UniProt Q2TB90); assay: activation of HKDC1 glucose phosphorylation – biochemical, W721R variant, dose response (AID 504730); assay type: functional
T1 sequence (Q2TB90 whole entry): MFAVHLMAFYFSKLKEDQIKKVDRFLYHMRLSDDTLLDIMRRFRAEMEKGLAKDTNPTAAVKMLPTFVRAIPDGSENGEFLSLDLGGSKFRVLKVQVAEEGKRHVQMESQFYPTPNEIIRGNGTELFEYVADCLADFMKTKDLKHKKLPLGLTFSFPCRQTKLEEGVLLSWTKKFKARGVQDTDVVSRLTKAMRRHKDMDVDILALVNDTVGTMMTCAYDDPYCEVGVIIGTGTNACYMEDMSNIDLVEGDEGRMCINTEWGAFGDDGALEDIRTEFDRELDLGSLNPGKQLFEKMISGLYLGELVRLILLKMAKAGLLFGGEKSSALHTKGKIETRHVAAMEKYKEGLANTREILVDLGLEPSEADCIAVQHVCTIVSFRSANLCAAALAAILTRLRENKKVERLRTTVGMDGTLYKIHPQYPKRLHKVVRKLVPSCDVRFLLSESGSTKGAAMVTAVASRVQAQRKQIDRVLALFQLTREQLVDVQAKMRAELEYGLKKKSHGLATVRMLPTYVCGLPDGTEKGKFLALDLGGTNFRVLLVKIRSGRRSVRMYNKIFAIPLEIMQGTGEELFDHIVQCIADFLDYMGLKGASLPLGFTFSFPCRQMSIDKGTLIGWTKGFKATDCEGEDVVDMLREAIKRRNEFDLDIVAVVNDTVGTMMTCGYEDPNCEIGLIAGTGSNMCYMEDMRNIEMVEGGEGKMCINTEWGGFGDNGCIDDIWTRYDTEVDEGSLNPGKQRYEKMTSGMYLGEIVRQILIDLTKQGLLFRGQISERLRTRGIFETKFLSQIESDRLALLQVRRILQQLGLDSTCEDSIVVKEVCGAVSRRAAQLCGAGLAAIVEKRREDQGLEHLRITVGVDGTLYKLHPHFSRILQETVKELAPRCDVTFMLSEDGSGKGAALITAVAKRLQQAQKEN

[5] = target: T2, Peroxisome proliferator-activated receptor gamma (Homo sapiens, UniProt P37231); assay: competitive ligand displacement at PPARg – biochemical, TR-FRET, LanthaScreen, PPARg partial agonist project, dose response (AID 504446)
[6] = target: T2, Peroxisome proliferator-activated receptor gamma; assay: PPARg transcriptional activation, reporter cells – cell-based, luminescence, assay provider, dose response (AID 504447); assay type: functional
[7] = target: Peroxisome proliferator-activated receptor alpha (Homo sapiens, UniProt Q07869); assay: Late stage assay provider counterscreen for partial agonists of the peroxisome proliferator-activated receptor gamma (PPARg): Luminescence-based cell-based dose response assay for partial agonists of the peroxisome proliferator-activated receptor alpha (PPARA). [Related pubchem assays (depositor defined):AID1051, AID1300, AID1319, AID1679, AID1808, AID504446, AID504447, AID504452, AID504453, AID631]; assay type: functional
Peroxisome proliferator-activated receptor alpha, sequence (Q07869 whole entry): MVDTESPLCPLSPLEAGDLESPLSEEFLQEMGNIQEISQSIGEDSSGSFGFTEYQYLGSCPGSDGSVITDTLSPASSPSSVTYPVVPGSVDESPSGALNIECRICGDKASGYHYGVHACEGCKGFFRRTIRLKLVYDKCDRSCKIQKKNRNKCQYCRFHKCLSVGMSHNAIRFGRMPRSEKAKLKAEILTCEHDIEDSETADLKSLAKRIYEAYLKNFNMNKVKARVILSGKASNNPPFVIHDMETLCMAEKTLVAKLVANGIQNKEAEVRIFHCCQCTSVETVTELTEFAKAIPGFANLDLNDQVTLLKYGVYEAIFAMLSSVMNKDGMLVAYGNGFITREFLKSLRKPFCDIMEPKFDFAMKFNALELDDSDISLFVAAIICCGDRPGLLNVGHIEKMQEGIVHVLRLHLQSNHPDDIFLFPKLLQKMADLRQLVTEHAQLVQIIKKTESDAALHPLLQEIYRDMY

T2 sequence (P37231 whole entry): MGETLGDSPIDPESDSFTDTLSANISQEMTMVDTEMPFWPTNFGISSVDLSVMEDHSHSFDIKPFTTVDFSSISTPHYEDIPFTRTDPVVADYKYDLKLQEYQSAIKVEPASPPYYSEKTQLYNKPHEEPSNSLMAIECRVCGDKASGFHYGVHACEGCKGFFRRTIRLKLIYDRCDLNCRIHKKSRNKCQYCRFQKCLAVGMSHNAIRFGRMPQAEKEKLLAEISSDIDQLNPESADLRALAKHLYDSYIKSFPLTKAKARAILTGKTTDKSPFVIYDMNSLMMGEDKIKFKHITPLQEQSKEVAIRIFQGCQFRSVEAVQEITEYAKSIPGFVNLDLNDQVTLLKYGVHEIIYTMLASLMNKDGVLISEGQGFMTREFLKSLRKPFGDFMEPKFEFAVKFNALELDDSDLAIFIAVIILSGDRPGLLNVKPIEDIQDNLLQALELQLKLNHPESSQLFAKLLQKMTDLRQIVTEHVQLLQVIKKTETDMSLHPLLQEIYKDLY
Hexokinase-1, sequence (P19367 whole entry): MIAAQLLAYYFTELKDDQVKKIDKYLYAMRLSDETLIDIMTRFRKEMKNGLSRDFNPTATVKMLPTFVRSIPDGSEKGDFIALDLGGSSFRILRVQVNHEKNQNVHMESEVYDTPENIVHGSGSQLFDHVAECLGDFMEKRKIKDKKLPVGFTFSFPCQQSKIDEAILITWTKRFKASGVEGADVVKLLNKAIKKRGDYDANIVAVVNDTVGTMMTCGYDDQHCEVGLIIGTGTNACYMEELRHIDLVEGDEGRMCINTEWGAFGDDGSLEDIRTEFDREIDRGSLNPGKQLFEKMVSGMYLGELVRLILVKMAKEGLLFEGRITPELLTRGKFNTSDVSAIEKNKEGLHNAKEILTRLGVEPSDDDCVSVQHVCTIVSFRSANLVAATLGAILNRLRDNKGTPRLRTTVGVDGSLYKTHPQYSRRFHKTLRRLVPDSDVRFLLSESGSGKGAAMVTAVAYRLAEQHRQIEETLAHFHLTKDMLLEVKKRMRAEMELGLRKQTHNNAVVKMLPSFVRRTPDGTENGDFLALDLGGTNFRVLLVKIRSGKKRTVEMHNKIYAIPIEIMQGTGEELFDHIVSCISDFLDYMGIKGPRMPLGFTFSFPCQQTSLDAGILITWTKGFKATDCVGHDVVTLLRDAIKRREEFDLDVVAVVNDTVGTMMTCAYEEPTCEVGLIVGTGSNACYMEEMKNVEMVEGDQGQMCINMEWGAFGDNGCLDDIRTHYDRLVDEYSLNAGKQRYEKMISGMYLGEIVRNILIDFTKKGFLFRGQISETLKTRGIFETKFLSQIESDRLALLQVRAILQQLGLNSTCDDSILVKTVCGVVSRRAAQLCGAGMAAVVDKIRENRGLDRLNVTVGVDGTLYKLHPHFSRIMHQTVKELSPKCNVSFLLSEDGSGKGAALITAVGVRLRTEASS
Nonstructural protein 1, sequence (Q194T2 whole entry): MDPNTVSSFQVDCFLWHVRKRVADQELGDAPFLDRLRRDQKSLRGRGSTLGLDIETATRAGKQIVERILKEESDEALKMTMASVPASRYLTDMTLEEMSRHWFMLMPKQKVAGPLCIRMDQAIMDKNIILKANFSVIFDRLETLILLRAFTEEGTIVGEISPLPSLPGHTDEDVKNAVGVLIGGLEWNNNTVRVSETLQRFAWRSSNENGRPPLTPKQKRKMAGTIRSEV

| Compound | AC50 [1] | EC50 [2] | IC50 [3] | EC50 [4] | IC50 [5] | EC50 [6] | EC50 [7] |
| --- | --- | --- | --- | --- | --- | --- | --- |
| CC(=NNC(=S)N1CC2CCC(CC2)C1)c1nccs1 | 539 nM (active) | > 80000 nM (inactive) | 13000 nM (active) | 1830 nM (active) | – | – | – |
| O=C(O)CCN1C(=O)/C(=C/c2ccc(F)cc2F)SC1=S | – | – | – | – | 2500 nM (active) | 1500 nM (active) | 57 nM (active) |
